How the values were obtained:
[1] = tested on: Huh7/Rep-Feo HCV replicon (HCV RNA replication); format: cell-based, Hepatitis C virus (strain HCV—N, genotype 1b); conditions: approximately 10-50 μM, most at 33 μM; for R-CompZ, compositeZ score for reporter gene assay: Table 2 antiviral hits of DOS set, 48 hours
Huh7/Rep-Feo cells = assay: Primary HTS cell viability counter-screen (CellTiterGlo); format: cell-based, human; conditions: for C-CompZ, compositeZ score for cell viability assay: Table 2 antiviral hits of DOS set, approximately 10-50 μM, most at 33 μM, 48 hours
Description: Primary Screening-HTS. Information about the library of known bioactive compounds that was screened and the general automated HTS protocol is available at http://www.broad.harvard.edu/chembio/index.html (see FIG. 10 for list of primary HTS with known bioactives library). Based on the results of optimization experiments in the 384-well plate format, the general HTS protocol was adapted as follows. Unless otherwise indicated, cells were incubated at all times in a humidified environment with 5% CO2 at 37° C. The assay was initiated by plating 30 μL of medium containing 2000 cells/well into white 384-well opaque-bottom plates (Nunc, Rochester, N.Y.) using an automated plate filler (Bio-Tek uFiller; Winsooki, Vt.) and allowing the cells to adhere for 24 hours. One hundred nL of compound stock solutions in DMSO was transferred from stock plates into the 384-well assay plates using an automated pin-based compound transfer robot (CyBio CyBi-Well vario; Woburn, Mass.). The final compound concentration in each well was estimated to be approximately 10-50 μM, with most compounds at 33 μM. The wells contained 0.33% DMSO by volume. The cells were then incubated for another 48 hours. The luminescent signal from each plate was detected using an automated plate reader (Perkin-Elmer Envision 1; Wellesley, Mass.). This screen was performed in duplicate. For negative controls, entire DMSO-treated control plates were employed, in addition to DMSO-only control wells that were incorporated into each compound assay plate. The cells were assayed for luciferase activity using the Bright-Glo Luciferase assay system (Promega), following the manufacturer's instructions. As a counter-screen, cell viability was assessed using the CellTiterGlo Luminescent cell viability assay (Promega) following the manufacturer's instructions.
Computational Data Analysis-Primary Screening. For each replicate, a mock-treatment distribution based on the total population of mock (DMSO) controls in that replicate was built (FIG. 11). Each compound was independently assigned a sign (ie, “+” or “−”) Z-score. Z-scores are calculated by dividing each background-subtracted, compound-treated well by the global standard deviation. A global standard deviation of the background-subtracted, mock-treated wells is calculated over the entire experiment. This distribution was determined to be consistent with experimental noise observed under cell-based assay conditions. The resulting collection of continuousvalued Z-scores represents the primary data set to be used for further analysis. The composite Z-score was calculated as a vector projection of each Z-score in duplicate onto an imaginary line of perfect reproducibility. Reproducibility is the cosine of the angle between each Z-score and that imaginary line; it is dimensionless and ranges from −1 to +1. […] The primary data were analyzed using the commercial software packages Pipeline Pilot (SciTegic, San Diego, Calif.) and SpotFire (SpotFire, Inc., Somerville, Mass.). The means of the negative, DMSO-only controls were considered the zero point.
Primary Screening—HTS: Unless otherwise indicated, cells were incubated at all times in a humidified environment with 5% CO2 at 37° C. The assay was initiated by plating 30 μl of medium containing 2,000 cells/well into white 384-well opaque-bottom plates (Nunc; Rochester, N.Y.) using an automated plate filler (Bio-Tek μFiller; Winsooki, Vt.) and allowing the cells to adhere for 24 hours. 100 nl of compound stock solutions in DMSO were transferred from stock plates into the 384-well assay plates using an automated pin-based compound transfer robot (CyBio CyBi-Well vario; Woburn, Mass.). The final compound concentration in each well was estimated to be approximately 10-50 μM, with most compounds at 33 μM. The wells contained 0.33% DMSO by volume. The cells were then incubated for another 48 hours. […]

Cc1cc2c(nc1C)CCCN2CC(C)O/N=C1/[C@H]2CCn3c(=O)n(-c4ccccc4)c(=O)n3[C@H]2[C@H](O)[C@@H]2O[C@H]12 (stereo partly drawn) [BUCMLD-B10A5]
R-CompZ, compositeZ score for reporter gene assay [1]: −3.0849
C-CompZ, compositeZ score for cell viability assay (Huh7/Rep-Feo cells): 0.3574

COc1cc2c(cc1OC)-c1c/c(=N\c3c(C)cc(C)cc3C)n(C)c(=O)n1CC2 [trequinsin, reference compound]
primary screen hit result (in words) ([1]; known bioactives library): not identified as a hit
cytotoxicity in the primary screen (Huh7/Rep-Feo cells; tested at 33 μM): cytotoxic

CC(=O)OC[C@H]1O[C@H](CCO/N=C2/[C@H]3CCn4c(=O)n(-c5ccccc5)c(=O)n4[C@H]3[C@H](O)[C@@H]3O[C@H]23)C=C[C@@H]1OC(C)=O [BUCMLD-B10A3]
R-CompZ, compositeZ score for reporter gene assay [1]: −4.6336
C-CompZ, compositeZ score for cell viability assay (Huh7/Rep-Feo cells): −1.8907

O=C1C2(CO)C=C(Br)C(CC2c2ccccc2)[C@@]12CO2 (stereo partly drawn) [SM_A6B5_2P100]
R-CompZ, compositeZ score for reporter gene assay [1]: −3.1341
C-CompZ, compositeZ score for cell viability assay (Huh7/Rep-Feo cells): −0.2965

Cc1cc(C)c(-c2cc([C@H](C)O/N=C3/[C@H]4CCn5c(=O)n(-c6ccccc6)c(=O)n5[C@H]4[C@H](O)[C@@H]4O[C@H]34)on2)c(C)c1 [BUCMLD-B10A11]
R-CompZ, compositeZ score for reporter gene assay [1]: −4.7324
C-CompZ, compositeZ score for cell viability assay (Huh7/Rep-Feo cells): −1.7178

O=C1C2C=C(I)C(CC2OCCCCO)[C@@]12CO2 (stereo partly drawn) [SM_A5B3_2P141]
R-CompZ, compositeZ score for reporter gene assay [1]: −2.5923
C-CompZ, compositeZ score for cell viability assay (Huh7/Rep-Feo cells): 0.6345
